# According to ChEMBL document CHEMBL1201862, “PubChem BioAssay data set” (2004):
# Activity calls are given as the source filed them.
# Key:
# [1] = target: T1, E3 ubiquitin-protein ligase XIAP (Homo sapiens, UniProt P98170); test: Counter Screen using XIAP-Bir3 for Chemical Antagonists of Bir1/2 domains of IAP-family anti-apoptotic proteins. [Related pubchem assays (depositor defined):AID1018, AID1449, AID1514, AID1638, AID1749, AID1750, AID488957, AID488963]
# [2] = target: T1, E3 ubiquitin-protein ligase XIAP; test: XIAP antagonists, biochemical, IAP family, fluorescence polarization (AID 1018); assay type: functional
# Cytochrome P450 3A4 = Cytochrome P450 3A4 (Homo sapiens, UniProt P08684); settings: Potency;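 also: confirmatory qHTS run detecting inhibitors and substrates of CYP3A4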
# Sequence of Cytochrome P450 3A4 (P08684 whole entry): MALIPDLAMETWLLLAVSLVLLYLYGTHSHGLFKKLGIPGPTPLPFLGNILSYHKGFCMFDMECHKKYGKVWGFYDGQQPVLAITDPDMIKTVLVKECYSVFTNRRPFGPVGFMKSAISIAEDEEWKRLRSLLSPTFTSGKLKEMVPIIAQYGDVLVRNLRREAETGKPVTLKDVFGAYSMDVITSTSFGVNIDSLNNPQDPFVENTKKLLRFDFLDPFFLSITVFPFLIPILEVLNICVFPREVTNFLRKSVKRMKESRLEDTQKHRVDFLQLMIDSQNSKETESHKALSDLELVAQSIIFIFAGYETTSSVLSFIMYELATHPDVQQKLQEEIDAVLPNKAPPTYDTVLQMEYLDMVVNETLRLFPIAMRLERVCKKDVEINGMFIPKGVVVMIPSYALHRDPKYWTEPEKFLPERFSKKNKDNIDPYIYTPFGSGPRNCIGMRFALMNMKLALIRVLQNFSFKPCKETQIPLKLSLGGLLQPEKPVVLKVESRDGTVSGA
# [3] = A cytotoxicity screen of small molecule inhibitors of the PhoP region in Salmonella typhi identified in the primary screen. [Related pubchem assays: 1850, 1864, 1985 ]; assay type: functional
# [4] = target: T2, Corticotropin-releasing factor receptor 2/Corticotropin-releasing factor-binding protein (Homo sapiens, UniProt P24387+Q13324); test: activators of CRF receptor 2 with binding protein – uHTS hits, confirmation (AID 602473); assay type: functional; settings: read-out: EC50_Mean
# T2 sequence (Q13324 whole entry): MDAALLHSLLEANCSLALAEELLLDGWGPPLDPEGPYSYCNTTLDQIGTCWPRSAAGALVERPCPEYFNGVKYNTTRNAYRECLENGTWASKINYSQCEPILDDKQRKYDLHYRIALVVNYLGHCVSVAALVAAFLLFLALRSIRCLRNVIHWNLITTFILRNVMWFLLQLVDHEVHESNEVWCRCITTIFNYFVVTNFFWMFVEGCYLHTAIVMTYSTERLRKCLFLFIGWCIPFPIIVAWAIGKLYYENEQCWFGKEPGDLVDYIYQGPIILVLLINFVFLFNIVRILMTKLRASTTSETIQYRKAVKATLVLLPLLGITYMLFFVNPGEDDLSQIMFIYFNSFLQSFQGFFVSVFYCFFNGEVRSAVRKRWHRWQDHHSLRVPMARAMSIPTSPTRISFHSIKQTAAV
# T2 sequence (P24387 whole entry): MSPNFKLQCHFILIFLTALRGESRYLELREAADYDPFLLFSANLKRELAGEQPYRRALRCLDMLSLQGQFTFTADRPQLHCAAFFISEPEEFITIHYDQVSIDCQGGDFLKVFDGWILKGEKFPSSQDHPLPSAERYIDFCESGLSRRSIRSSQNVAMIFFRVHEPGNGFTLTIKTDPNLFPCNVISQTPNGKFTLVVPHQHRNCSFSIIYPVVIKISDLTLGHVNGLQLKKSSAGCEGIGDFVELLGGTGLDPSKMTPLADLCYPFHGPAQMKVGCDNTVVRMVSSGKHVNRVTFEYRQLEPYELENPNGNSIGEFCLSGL
# [5] = target: T2, Corticotropin-releasing factor receptor 2/Corticotropin-releasing factor-binding protein; test: Dose Response confirmation of uHTS hits for small molecule antagonists of the CRF-binding protein and CRF-R2 receptor complex.; assay type: functional; settings: read-out: IC50_Mean
# [6] = CRF-BP/CRF-R2 complex antagonists, dose response, cell-based, uHTS hits, 384-well (AID 651639); assay type: functional, Homo sapiens; settings: read-out: IC50_Mean
# Prothrombin = Prothrombin (Homo sapiens, UniProt P00734); test: Thrombin 1536 HTS Dose Response Confirmation. [Related pubchem assays: 1046 (Thrombin 1536 HTS; hits were confirmed in this assay)]; assay type: functional
# H9c2 = test: cells; assay type: functional, cell-based; settings: Rattus norvegicus, H9c2, Myocardium;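 also: confirmatory concentration-response retest of ultra-high-throughput screening hits for modulation of myocardial damage; cell death induced by hydrogen peroxide oxidative stress; compound pretreatment for 60 min then peroxide exposure for 2 h; potency is for protecting the cells against peroxide damage rather than for killing them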
# [7] = target: DNA dC->dU-editing enzyme APOBEC-3G (Homo sapiens, UniProt Q9HC16); test: Dose Response confirmation of small molecule APOBEC3G DNA Deaminase Inhibitors via a fluorescence-based single-stranded DNA deaminase assay. [Related pubchem assays (depositor defined):AID493012, AID493028]; assay type: functional
# Sequence of DNA dC->dU-editing enzyme APOBEC-3G (Q9HC16 whole entry): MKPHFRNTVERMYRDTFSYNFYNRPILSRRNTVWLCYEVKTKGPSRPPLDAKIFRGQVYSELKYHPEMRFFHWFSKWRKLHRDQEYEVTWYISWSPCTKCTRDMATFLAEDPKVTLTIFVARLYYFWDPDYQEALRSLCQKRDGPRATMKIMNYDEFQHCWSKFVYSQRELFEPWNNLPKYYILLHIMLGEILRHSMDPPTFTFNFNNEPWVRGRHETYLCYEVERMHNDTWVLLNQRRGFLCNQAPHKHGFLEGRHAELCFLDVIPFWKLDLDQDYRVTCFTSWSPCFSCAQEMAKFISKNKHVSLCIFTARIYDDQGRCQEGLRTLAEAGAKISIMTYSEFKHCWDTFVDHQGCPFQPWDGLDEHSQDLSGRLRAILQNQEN
# [8] = intracellular Trypanosoma cruzi inhibitors in host cells – cell-based, plate reader, cherry-pick samples, set 3, dose response (AID 651818); assay type: functional;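 also: compounds incubated with infected cells for about four days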
# T1 sequence (P98170 whole entry): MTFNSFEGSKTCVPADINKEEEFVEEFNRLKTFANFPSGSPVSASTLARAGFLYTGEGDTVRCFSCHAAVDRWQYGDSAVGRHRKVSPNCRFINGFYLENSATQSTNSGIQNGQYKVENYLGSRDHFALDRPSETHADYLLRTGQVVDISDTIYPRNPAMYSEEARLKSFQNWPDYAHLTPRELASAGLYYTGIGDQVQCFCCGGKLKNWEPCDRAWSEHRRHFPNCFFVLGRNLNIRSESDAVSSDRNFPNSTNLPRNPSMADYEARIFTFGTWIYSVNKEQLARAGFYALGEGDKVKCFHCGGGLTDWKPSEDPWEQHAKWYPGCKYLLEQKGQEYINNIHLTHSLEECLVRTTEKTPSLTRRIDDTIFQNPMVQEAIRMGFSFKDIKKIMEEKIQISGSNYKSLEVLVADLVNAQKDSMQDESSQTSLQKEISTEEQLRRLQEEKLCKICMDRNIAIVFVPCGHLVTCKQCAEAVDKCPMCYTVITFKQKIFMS
compound,measurement,setting,value
Cc1ccc(S(=O)(=O)N(C)C)cc1NC(=S)NC12CC3CC(CC(C3)C1)C2,IC50,[1],> 100 µM (inactive)
same,IC50,[2],> 100 µM (not active)
CCCn1c(C)nc2c(N3CCOCC3)nc(C)nc21,AC50,Cytochrome P450 3A4,7.94 µM (inconclusive)
CCOc1ccc(NC(=O)c2ccc(N)cc2)cc1,EC50,[3],> 50 µM (active)
Nc1nnc(SCc2cc3c(cc2Cl)OCO3)s1,EC50,[4],> 53 µM (inactive)
same,IC50,[5],22.5 µM (active)
same,IC50,[6],> 20 µM (inactive)
Cc1cccc(NC(=S)NC23CN4CN(CN(C4)C2)C3)c1,IC50,Prothrombin,> 50 µM (not active)
Cc1cccn2c(=O)c3cc(C(=O)NCC4CCCO4)c(=N)n(C4CCCC4)c3nc12 (stereo not drawn),EC50,[3],> 50 µM (active)
O=C(Nc1cc(S(=O)(=O)N2CCOCC2)ccc1N1CCCCC1)c1cc(-c2ccccn2)nc2ccccc12,IC50,H9c2,> 79 µM (inactive)
same,IC50,[7],92.6 µM (active)
COc1ccccc1CCNC(=O)CCn1nc(C)c2c(C)n(-c3ccccc3)nc2c1=O,EC50,[4],> 53 µM (inactive)
same,IC50,[5],41.1 µM (active)
same,IC50,[6],> 20 µM (inactive)
C[C@@H]1CN([C@@H](C)CO)C(=O)Cc2cc(NC(=O)Nc3cccc4ccccc34)ccc2O[C@@H]1CN(C)Cc1ccc(C(F)(F)F)cc1,AC50,[8],3.08 µM (active)
CSc1nc(C)c(C(=O)C[n+]2ccccc2C)cc1C#N,EC50,[4],> 53 µM (inactive)
same,IC50,[5],< 0.368 µM (active)
same,IC50,[6],> 20 µM (inactive)
C[C@@H]1CCCCO[C@@H](CN(C)Cc2ccc(Cl)c(Cl)c2)[C@@H](C)CN([C@H](C)CO)C(=O)c2cc(NS(=O)(=O)c3ccc(F)cc3)ccc2O1,AC50,[8],4.38 µM (active)
C[C@@H]1CN([C@@H](C)CO)C(=O)Cc2cc(NC(=O)Nc3ccc(C(F)(F)F)cc3)ccc2O[C@@H]1CN(C)Cc1ccc(C(F)(F)F)cc1,AC50,[8],3.26 µM (active)
COc1ccc(NC(=O)Nc2ccc3c(c2)CC(=O)N([C@@H](C)CO)C[C@@H](C)[C@@H](CN(C)Cc2ccc(C(=O)Nc4ccccc4N)cc2)O3)cc1,AC50,[8],2.51 µM (active)
C[C@@H]1CN([C@H](C)CO)C(=O)c2cccc(NC(=O)Nc3ccc4c(c3)OCO4)c2O[C@H]1CN(C)Cc1ccc(C(=O)Nc2ccccc2N)cc1,AC50,[8],0.743 µM (active)
Cc1cc(C)n(/N=C/c2cc([N+](=O)[O-])ccc2O)c(=O)c1,EC50,[3],> 50 µM (active)
